Here are results for 43 sequences from patent publication US20230293630A1, “Coronavirus T Cell Epitopes and Uses Thereof” (priority 2020, published 2023).

The subject of the first assay is SARS-CoV-2-specific CD4+ T cells (OX40+CD137+) in PBMC. The format is cell-based, human.
Conditions: not given
For FYSKWYIRVGARKSA [SEQ ID NO 255], the “Frequency of response (%)” value stood at 55%, the “Magnitude by # of responding donors” value is 468 and the Sum of response was 2805.

The assay is the same for the next values; noted with them: CD4+ T cell epitopes identified by AIM assay; percent of tested donors responding.
In the case of IGINITRFQTLLALH, the “Frequency of response (%)” value was found to be 9%.

Staying with this assay, now noted: CD4+ T cell epitopes identified by AIM assay; share of donors responding.
Consider AENSVAYSNNSIAIP, for which the “Frequency of response (%)” value was determined as 17%.

As to VTLADAGFIKQYGDC, the “Frequency of response (%)” value worked out at 17%.

Regarding LNTDHSSSSDNIALL, the “Frequency of response (%)” value is 8%.

As for WDLTAFGLVAEWFLA, the “Frequency of response (%)” value came to 8%.

Regarding TQAFGRRGPEQTQGN, the “Frequency of response (%)” value came to 8%.

Regarding TFGGPSDSTGSNQNG, the “Frequency of response (%)” value was found to be 6%.

For the sequence IWVATEGALNTPKDH, the “Frequency of response (%)” value is listed as 7%.

For the sequence ELHLSWEVGKPRPPL, the “Frequency of response (%)” value is listed as 8%.

Take YFTSDYYQLYSTQLS: the “Frequency of response (%)” value is on record as 8%.

Take TLRVEAFEYYHTTDP: the “Frequency of response (%)” value turned out to be 18%.

In the case of VWHVNNATNKATYKP, the “Frequency of response (%)” value came to 8%.

As to FNCYFPLQSYGFQPT, the “Frequency of response (%)” value was 8%.

As for GIVNNTVYDPLQPEL, the “Frequency of response (%)” value turned out to be 7%.

Consider DVFHLYLQYIRKLHD, for which the “Frequency of response (%)” value is listed as 7%.

As to KHFYWFFSNYLKRRV [SEQ ID NO 244], the “Frequency of response (%)” value was 8%.

Turning to CNLLLLFVTVYSHLL, the “Frequency of response (%)” value is 18%.

For YCIDGALLTKSSEYK, the “Frequency of response (%)” value came to 7%.

On to LPDPSKPSKRSFIED, for which the “Frequency of response (%)” value is 8%.

Take FPRGQGVPINTNSSP: the “Frequency of response (%)” value came to 8%.

On to LYIIKLIFLWLLWPV, for which the “Frequency of response (%)” value was 13%.

With NLVIGFLFLTWICLL, the “Frequency of response (%)” value was determined as 7%.

Take SIAIPTNFTISVTTE: the “Frequency of response (%)” value is 8%.

In the case of CCHLAKALNDFSNSG, the “Frequency of response (%)” value is given as 8%.

With VTQNVLYENQKLIAN, the “Frequency of response (%)” value came out at 14%.

MAAYVDNSSLTIKKP: the “Frequency of response (%)” value is recorded as 7%.

As for TTVAAFHQECSLQSC, the “Frequency of response (%)” value is 18%.

Consider PRWYFYYLGTGPEAG, for which the “Frequency of response (%)” value is given as 7%.

As to KTDGTLMIERFVSLA, the “Frequency of response (%)” value stood at 7%.

For the sequence TDEMIAQYTSALLAG, the “Frequency of response (%)” value amounted to 9%.

On to EDFLEYHDVRVVLDF, for which the “Frequency of response (%)” value is given as 18%.

Take PDLNGDVVAIDYKHY: the “Frequency of response (%)” value amounted to 15%.

In the case of AAEASKKPRQKRTAT, the “Frequency of response (%)” value is 23%.

Consider FIYNKIVDEPEEHVQ, for which the “Frequency of response (%)” value is reported as 14%.

For FLCWHTNCYDYCIPY, the “Frequency of response (%)” value was found to be 7%.

Regarding AVTANVNALLSTDGN, the “Frequency of response (%)” value came to 7%.

For the sequence IGNYTVSCLPFTINC, the “Frequency of response (%)” value worked out at 45%.

In the case of VVIKVCEFQFCNDPF, the “Frequency of response (%)” value amounted to 9%.

Regarding NVPLHGTILTRPLLE, the “Frequency of response (%)” value is given as 8%.

As for IDAYPLTKHPNQEYA, the “Frequency of response (%)” value is 14%.

For the sequence QDALFAYTKRNVIPT, the “Frequency of response (%)” value stood at 6%.

On to LYLYALVYFLQSINF, for which the “Frequency of response (%)” value was found to be 21%.

The assay is the same for the next values; noted with them: CD4+ T cell epitopes identified by AIM assay; sum of response per responding donor.
In the case of AENSVAYSNNSIAIP, the “Magnitude by # of responding donors” value was determined as 403.

Take VTLADAGFIKQYGDC: the “Magnitude by # of responding donors” value came out at 119.

With LNTDHSSSSDNIALL, the “Magnitude by # of responding donors” value is listed as 568.

Regarding WDLTAFGLVAEWFLA, the “Magnitude by # of responding donors” value stood at 134.

For TQAFGRRGPEQTQGN, the “Magnitude by # of responding donors” value is recorded as 151.

Take TFGGPSDSTGSNQNG: the “Magnitude by # of responding donors” value worked out at 291.

Regarding IWVATEGALNTPKDH, the “Magnitude by # of responding donors” value came out at 200.

On to ELHLSWEVGKPRPPL, for which the “Magnitude by # of responding donors” value stood at 103.

As for YFTSDYYQLYSTQLS, the “Magnitude by # of responding donors” value is on record as 198.

Regarding TLRVEAFEYYHTTDP, the “Magnitude by # of responding donors” value was 318.

In the case of VWHVNNATNKATYKP, the “Magnitude by # of responding donors” value came to 158.

In the case of FNCYFPLQSYGFQPT, the “Magnitude by # of responding donors” value came out at 130.

For the sequence GIVNNTVYDPLQPEL, the “Magnitude by # of responding donors” value worked out at 164.

Regarding DVFHLYLQYIRKLHD, the “Magnitude by # of responding donors” value was 247.

KHFYWFFSNYLKRRV [SEQ ID NO 244]: the “Magnitude by # of responding donors” value is 959.

For the sequence CNLLLLFVTVYSHLL, the “Magnitude by # of responding donors” value was determined as 212.

Take YCIDGALLTKSSEYK: the “Magnitude by # of responding donors” value is 119.

As for LPDPSKPSKRSFIED, the “Magnitude by # of responding donors” value is recorded as 109.

FPRGQGVPINTNSSP: the “Magnitude by # of responding donors” value was 397.

With LYIIKLIFLWLLWPV, the “Magnitude by # of responding donors” value came out at 199.

As to NLVIGFLFLTWICLL, the “Magnitude by # of responding donors” value was determined as 261.

On to SIAIPTNFTISVTTE, for which the “Magnitude by # of responding donors” value was determined as 274.

Consider CCHLAKALNDFSNSG, for which the “Magnitude by # of responding donors” value was determined as 111.

VTQNVLYENQKLIAN: the “Magnitude by # of responding donors” value came out at 353.

Regarding MAAYVDNSSLTIKKP, the “Magnitude by # of responding donors” value turned out to be 185.

As to TTVAAFHQECSLQSC, the “Magnitude by # of responding donors” value was 1008.

As to PRWYFYYLGTGPEAG, the “Magnitude by # of responding donors” value was determined as 750.

Regarding KTDGTLMIERFVSLA, the “Magnitude by # of responding donors” value is 150.

For the sequence TDEMIAQYTSALLAG, the “Magnitude by # of responding donors” value came to 745.

Turning to EDFLEYHDVRVVLDF, the “Magnitude by # of responding donors” value turned out to be 571.

In the case of PDLNGDVVAIDYKHY, the “Magnitude by # of responding donors” value came to 215.

Take AAEASKKPRQKRTAT: the “Magnitude by # of responding donors” value came to 179.

For FIYNKIVDEPEEHVQ, the “Magnitude by # of responding donors” value was determined as 243.

Consider FLCWHTNCYDYCIPY, for which the “Magnitude by # of responding donors” value is recorded as 209.

For the sequence IGINITRFQTLLALH, the “Magnitude by # of responding donors” value is on record as 177.

As to AVTANVNALLSTDGN, the “Magnitude by # of responding donors” value is reported as 201.

For IGNYTVSCLPFTINC, the “Magnitude by # of responding donors” value came to 245.

Turning to VVIKVCEFQFCNDPF, the “Magnitude by # of responding donors” value is reported as 2088.

Consider NVPLHGTILTRPLLE, for which the “Magnitude by # of responding donors” value worked out at 263.

With IDAYPLTKHPNQEYA, the “Magnitude by # of responding donors” value is recorded as 115.

On to QDALFAYTKRNVIPT, for which the “Magnitude by # of responding donors” value is 132.

For LYLYALVYFLQSINF, the “Magnitude by # of responding donors” value amounted to 124.

Staying with this assay, now noted: CD4+ T cell epitopes identified by AIM assay; total response.
Sequence AENSVAYSNNSIAIP showed a Sum of response of 805.

VTLADAGFIKQYGDC displayed a Sum of response of 237.

For LNTDHSSSSDNIALL, the Sum of response is 568.

Take WDLTAFGLVAEWFLA: the Sum of response amounted to 134.

TQAFGRRGPEQTQGN returned a Sum of response of 151.

TFGGPSDSTGSNQNG: the Sum of response was determined as 291.

IWVATEGALNTPKDH had a Sum of response of 200.

ELHLSWEVGKPRPPL: the Sum of response stood at 103.

Turning to YFTSDYYQLYSTQLS, the Sum of response was 198.

Sequence TLRVEAFEYYHTTDP showed a Sum of response of 635.

In turn, VWHVNNATNKATYKP displayed a Sum of response of 158.

With FNCYFPLQSYGFQPT, the Sum of response was 130.

Turning to GIVNNTVYDPLQPEL, the Sum of response is 164.

In turn, DVFHLYLQYIRKLHD yielded a Sum of response of 247.

KHFYWFFSNYLKRRV [SEQ ID NO 244]: the Sum of response is 959.

Consider CNLLLLFVTVYSHLL, for which the Sum of response is 424.

Sequence YCIDGALLTKSSEYK came in with a Sum of response of 119.

In turn, LPDPSKPSKRSFIED returned a Sum of response of 109.

FPRGQGVPINTNSSP returned a Sum of response of 397.

Sequence LYIIKLIFLWLLWPV yielded a Sum of response of 397.

Consider NLVIGFLFLTWICLL, for which the Sum of response is listed as 261.

As for SIAIPTNFTISVTTE, the Sum of response came out at 274.

Regarding CCHLAKALNDFSNSG, the Sum of response came out at 111.

With VTQNVLYENQKLIAN, the Sum of response is 705.

For the sequence MAAYVDNSSLTIKKP, the Sum of response amounted to 185.

Sequence TTVAAFHQECSLQSC came in with a Sum of response of 2016.

Sequence PRWYFYYLGTGPEAG gave a Sum of response of 750.

In turn, KTDGTLMIERFVSLA registered a Sum of response of 150.

Consider TDEMIAQYTSALLAG, for which the Sum of response was found to be 745.

EDFLEYHDVRVVLDF returned a Sum of response of 1141.

On to PDLNGDVVAIDYKHY, for which the Sum of response is given as 430.

Take AAEASKKPRQKRTAT: the Sum of response was 537.

FIYNKIVDEPEEHVQ came in with a Sum of response of 486.

On to FLCWHTNCYDYCIPY, for which the Sum of response is 209.

With AVTANVNALLSTDGN, the Sum of response was found to be 201.

The sequence IGNYTVSCLPFTINC had a Sum of response of 1223.

The sequence VVIKVCEFQFCNDPF came in with a Sum of response of 2088.

NVPLHGTILTRPLLE returned a Sum of response of 263.

For the sequence IDAYPLTKHPNQEYA, the Sum of response is 229.

Sequence QDALFAYTKRNVIPT yielded a Sum of response of 132.

The sequence LYLYALVYFLQSINF returned a Sum of response of 371.

The same assay, now with this note: CD4+ T cell epitopes identified by AIM assay; total response summed over donors.
For IGINITRFQTLLALH, the Sum of response was 177.
